Test [1] has as its system pathogen-free rats. The experiment in a line: Agarose plug-induced goblet cell metaplasia in pathogen-free rats. The test is classed as in vivo, rat. How it is done:
Protocol of experiments. We studied pathogen-free rats, because they normally have few goblet cells in airways. The animals were anesthetized with methohexital sodium (Brevital, 25 mg/kg, i.p.). The trachea was exposed aseptically with a midline cervical incision, and agarose plugs were instilled into a bronchus via a 20 gauge Angiocath (Becton Dikinson, Sandy, Utah) connected to polyethylene tubing (PE 90, internal diameter 0.86 mm and outer diameter 1.27 mm, Clay Adams, Parsippany, N.Y.) threaded into the incised trachea. The polyethylene tube was bent at a 30° angle to allow selective instillation into the right bronchus. After instillation, the incision was closed with a suture.
To evaluate the role of EGF-R on agarose plug-induced goblet cell metaplasia, animals were treated with BIBX1522 (80 mg/kg, i.p.) 1 h before instillation of the agarose plugs and repeated daily (40 mg/kg, i.p., bid). Animals were euthanized 24, 48 or 72 h after instillation of the agarose plugs.
The first treatment (100 μl in 0.2 ml saline, i.p.) was given 1 h before the instillation of agarose plugs, and i.p. injections were repeated daily.
To study the effect of neutrophils on agarose plug-induced goblet cell metaplasia, rats were pretreated with cyclophosphamide (an inhibitor of bone marrow leukocytes) or with a combination of cyclophosphamide plus NPC 15669. Cyclophosphnamide (100 mg/kg, i.p.) was given 5 d before instillation of agarose plugs, and a second injection of cyclophosphamide (50 mg/kg, i.p.) was given 1 d before instillation of plugs. In studies with NPC 15669, the drug (10 mg/kg, i.p.) was injected 1 h before instillation of agarose plugs, and then daily for 3 d thereafter.
Tissue preparation. At various times after agarose plug instillation, rats were anesthetized with sodium pentobarbital (65 mg/kg, i.p.), the systemic circulation was perfused with 1% paraformaldehyde in diethyl pyrocarbonate-treated PBS at a pressure of 120 mmHg. The right lung was removed, and the right caudal lobe was used for histology. For frozen sections, tissues were removed and placed in 4% paraformaldehyde for 1 h and then replaced in 30% sucrose for cryoprotection overnight. The tissues were embedded in O.C.T. compound (Sakura Finetek U.S.A., Inc., Torrance, Calif.). For methacrylate sections, the tissues were placed in 4% paraformaidehyde for 24 h and then dehydrated with graded concentrations of ethanol and embedded in methacrylate JB-4 (Polysciences, Inc., Warrington, Pa.). Tissue sections (4 μm thick) were stained with Alcian blue/PAS and counterstained with hematoxylin.
Morphoometric analysis of bronchial epithelium. The percentage of Alcian blue/PAS-stained area of mucous glycoconjugates in the epithelium was determined using a semi-automatic image analysis system according to previously published methods. The area of epithelium and Alcian blue/PAS-stained mucous conjugates within the epithelium was manually circumscribed and analyzed using the NIH Image program (developed at the U.S. National Institutes of health and available from the internet by ananymous FTP or from a floppy disk from the National Technical Information Service, Springfield, Va.; part number PB95-500195GEI). The data are expressed as the percentage of the total epithelial area occupied by Alcian blue/PAS stain. […] The percentage of denuded epithelium was determined by calculating the ratio of the length of denuded epithelium to the total epithelial length.
Identification of cell types in methacrylate sections and cell analysis. The total number of epithelial cells was determined by counting epithelial cell nuclei over 2 mm of the basal lamina with an oil immersion objective lens (×1000 magnification). The linear length of the basal lamina under each analyzed region of epithelium was determined by tracing the contour of the digitalized image of the basal lamina. The epithelia; cells were identified as described previously.

In test [2] the test system is pathogen-free rats. The experiment in a line: IL-13-induced goblet cell metaplasia in rat airways. The test is classed as in vivo. The following applies: pretreatment. On the procedure: Animals were anesthetized with pentobarbital [Nembutal sodium, 50 mg/kg, intraperitoneally (ip), Abbott Laboratories, North Chicago, Ill.] and allowed to breathe spontaneously. Vehicle (phosphate buffer solution, PBS) or IL-13 was instilled intratracheally via a 20-gauge Angiocath catheter (Beckton Dickinson, Sandy, Utah) through the mouth, while the laryngeal area was visualized using a high-intensity illuminator (FiberLite; Dolan Jenner Industries, Inc., Lawrence, Mass.). The […] tissues were examined 48 hours after instillation of IL-13. Various concentrations of IL-13 (recombinant murine IL-13; 5, 50, 100, and 500 ng/rat, R&D systems, Minneapolis, Minn.) were instilled into the trachea in […]. Sterile PBS (200 μl) was instilled into the trachea as controls. For examination of the relationship between IL-13-induced GC metaplasia and activation of EGFR, animals were pretreated 1 d before instillation of IL-13 and daily thereafter with a selective EGFR tyrosine kinase inhibitor (BIBX 1522; 1-30 mg/kg/day, ip; Boehringer Ingelheim, Ingelheim, Germany). Animals were euthanized 48 hours after instillation of IL-13. In preliminary studies, we noted that IL-13 causes leukocyte recruitment into the airways. We hypothesized that leukocyte recruitment results from IL-13-induced chemoattractant release from epithelium, and that this recruitment is involved in the IL-13-induced EGFR cascade leading to GC metaplasia. Groups of animals were euthanized 4, 8, 16, 24, and 48 hours after instillation of IL-13 (500 ng), and leukocytes were counted in airway tissue. […] Sigma chemical Co., St Louis, Mo.] or with a blocking antibody to interleukin-8 (IL-BAb; rabbit anti-human IL-8 antibody; Biosource, Camarillo, Calif.). […] In another series of studies, we instilled IL-8 Ab (10 μg/rat) intratracheally, along with IL-13; we repeated the instillation of anti-human IL-8 blocking antibody at 12 hour intervals until the animals were euthanized. Animals were euthanized with a lethal dose of pentobarbital (Nembutal sodium, 200 mg/kg, ip, Abbott Laboratories, North Chicago, Ill.), and the systemic circulation was perfused with 1% paraformaldehyde in Diethylpyrocarbonate (DEPC, Sigma chemical Co., St Louis, Mo.)-treated PBS via the left ventricle. For frozen sections, […] tissues were removed, placed in 4% paraformaldehyde overnight, and then placed in 30% sucrose for cryoprotection. The tissues were embedded in optimal cutting temperature (OCT, […]., Inc., Torrance, Calif.) compound. For plastic or paraffin sections, tissues were placed in 4% paraformaldehyde overnight, dehydrated with ethanol, and embedded in JB-4 plus monomer solution A (Polysclences, Inc., Warrington, Pa.) or in paraffin. The embedded tissues were cut as cross sections 4 μm thick and placed on glass slides. In all studies, the carina was examined to obtain consistent sampling. We measured AB/PAS-positive areas and total epithelial area, and we expressed the results as the percentage of AB/PAS area to total epithelial area. The analysis was performed with the public domain NIH IMAGE program (developed at the U.S. National Institutes of Health and available by anonymous FTP from zippy.nimh.gov. or floppy disk from the National Technical Information Service, Springfield, Va., part number PB95-500195GEI). […] For immunohistochemical localization of […], we used mouse anti-human IL-8 antibody (1:20; Biosource, Camarillo, Calif.). The sections were then incubated with biotinylated horse anti-mouse IgG (Vector Laboratories, Burlingame, Calif.) at 1:200 dilution for 1 hour at room temperature. Bound antibody was visualized according to standard protocols for avidin-biotin-peroxidase complex method. The measurement of MUC5AC protein also utilized the same method used for quantitative measurement of GC metaplasia in the epithelium. Animals were euthanized 4, 8, 16, 24, and 48 hours after instillation of IL-13 (500 ng), and leukocytes were counted in airway tissue. […]

In the case of `O=P1(N(CCCl)CCCl)NCCCO1` (stereo not shown) [cyclophosphamide], the “neutrophil count in venous blood” value in test [1] (after cyclophosphamide 100 mg/kg then 50 mg/kg i.p., n=5) was 1.8±0.5%. For the same molecule, in test [1] (rat, in vivo), the “agarose plug-induced EGF-R protein expression” value is “inhibited”, the “agarose plug-induced goblet cell metaplasia (Alcian blue/PAS-positively stained cells)” value is listed as “inhibited”, the “macrophage recruitment after agarose plugs” value is reported as “did not inhibit” and the “plug-induced neutrophil recruitment in BAL” value was “inhibited”. Besides, in test [1] (treated rats with plugs, 24 h), the “number of neutrophils in the airway lumen” value is 2.6±0.3 /mm of basal lamina and the “number of neutrophils in the epithelium” value is given as 0.8±0.2 /mm. For the same molecule, in test [2], the “IL-13-induced TNFα expression” value is given as “prevented”, the “IL-13-induced leukocyte recruitment into airways” value is on record as “inhibited” and the IL-13-induced mucin production result is on record as “prevented”.
